Measurements from patent US20050049242A1 (priority 2000, published 2005).
Where two headings read alike, the source gives them in different places.

Columns and labels:
HIVNL4-3 clone 7-1 = assay type: cell-based, HIV-1; conditions: for concentration of the drug in the combination with L-CCA giving Fa: NL4-3clone7-1, combined with L-CCA
HIVNL4-3 JF26/A7 = conditions: for concentration of the drug in the combination with L-CCA giving Fa: NL4-3cloneJF26/A7, combined with L-CCA
Experimental: (§1) For each of these HIV clones, the ED50 was determined for the anti-HIV compounds ZDV, DDC, DDI, the protease inhibitor (PI) Nelfinavir (provided by Agouron Pharmaceuticals, San Diego), and L-CCA.
(§2) Molecular clones of HIV included wild-type HIVNL4-3, HIVNL4-3 M184V, and HIVNL4-3 JF26/A7, All three clones were a generous gift from P. Krogstad (UCLA, Los Angeles, Calif.). Viruses were initially, transfected in adherent HeLa cells using Lipofectin®. After 48 hours, H9 cells were added. Following 24 hours of co-culture, non-adherent cells were removed and cultured. Cells were monitored by indirect immunofluorescence and RT release as described below until the culture was 100% infected by HIV-1. Supernatant fluids were collected and clarified of cells by low-speed centrifugation followed by filtration through 0.45 μm filters.
(§3) Anti-HIV activity of compounds was determined both alone and in combination using a cytopathicity based assay as described above. […] The fifty-percent effective dose (ED50) was calculated for triplicate infections. Mean ED50 (shown in FIG. 5) were calculated for each drug against each HIV variant from a minimum of three experiments performed in triplicate.
(§4) Experiments were designed at a fixed ratio of drugs; the ratio for each drug combination was determined based on the ED50 of each drug alone against each HIV variant. Combination indices were calculated on representative experiments performed in triplicate according to the following formula of Chou and Talalay: fa/fu=(D/Dm)^m
(§5) Where fa is the fraction affected by the dose, fu is the unaffected fraction, D is the dose of the drug, Dm is the median-effect dose determined to be the x-intercept of the median-effect plot, and m is the sigmoidicity of the dose-effect curve, determined by the slope of the median-effect plot. The median effect plot is based on the following equation: log(fa/fu)=^m log (D)−m log (Dm)

HIVNL4-3 M184V = assay type: cell-based, HIV-1; conditions: for concentration of the drug in the combination with L-CCA giving Fa: NL4-3cloneM184V, combined with L-CCA; for susceptibility of the clone to the drug alone: clone with methionine to valine mutation in RT
Experimental: as §1, §2, §3, §4, §5

HIV-1 IN = HIV-1 IN (Human immunodeficiency virus type 1 group M subtype B, UniProt P12497); test: biochemical
MT-2 cells = conditions: 48 hours
Description: The chemical structures of the compounds are illustrated in FIGS. 1-4. In FIG. 1a, the D- and meso-isomers of L-chicoric acid are identical in this illustrative format. […] The first compound in Table 1, L-chicoric acid, a previously described DCTA, is included for reference. LD5, the 5% lethal dose, is a measure of the toxicity of compound to living, cultured cells. It is the concentration at which cell growth is inhibited by 5%. […] Most simply understood, disintegration is a term used to refer to the reverse of integration.
Cell toxicity and anti-HIV assays were performed as reported above. […] Cells were incubated with drug for 48 hours at 37° C., then harvested for cell viability in a neutral red dye assay as described.

HIVLAI = test: Anti-HIV assay, protection from HIV-induced cell death; assay type: cell-based; conditions: read-out: ED50 (concentration that inhibits HIV-induced cell death by 50%)
Experimental: Anti-HIV assays were performed as described above. […] The compounds were then two-fold serially diluted in triplicate. To each 50 μl of diluted compound, 50 μl of HIVLAI was added and the virus-drug mixture was incubated for 1 hr at 37° C. […] Final multiplicity of infection (MOI) was 1-5. Cells were harvested to quantitate cytopathic effect using a neutral red dye assay as described.

HIV-1NL4-3clone1-D4 = assay type: cell-based; conditions: for Fold Change (ED50 resistant clone vs HIVNL4-3): HIVNL4-3clone1-D4 vs HIVNL4-3; for efficacy against the L-chicoric acid resistant clone: compared with parental HIVNL4-3; for EC50: mean of triplicate infections, read-out: ED50 HIVNL4-3clone1-D4
Experimental: (§6) Cloning and sequencing of virus from the HIVNL4-3 passaged in the presence of 8 μM L-chicoric acid was undertaken to determine the molecular basis for resistance to L-chicoric acid and to isolate a resistant HIV clone.
This cloning was accomplished through site-directed mutagenesis introducing several silent mutations immediately upstream and downstream of the integrase gene. These mutations generated two unique restriction sites: an upstream SacII and a downstream XbaI (FIG. 15). Introduction of these mutations allowed the entire integrase gene with only minimal upstream and downstream nucleotides to be digested and “swapped” between drug-resistant and drug-sensitive clones.

HIV-1NL4-3 = test: Anti-HIV cytopathicity assay against parental molecular clone; assay type: cell-based; conditions: mean of triplicate infections; read-out: ED50 HIVNL4-3
Experimental: as §6
Assays, as described above, to determine the ED50 for a given compound against the molecular clone HIVNL4-3clone1-D4 and the parental clone HIVNL4-3 give an indication of the selectivity of the compound for inhibition of HIV replication through IN. Resistance to a compound, as measured by an increased ED50, by clone HIVNL4-3clone1-D4, implies selectivity of the compound for IN. Thus clone HIVNL4-3clone1-D4 can be used to screen candidate IN inhibitors for selectivity.

SMILES | concentration of the drug in the combination with L-CCA giving Fa (HIVNL4-3 clone 7-1; Fa 0.2) | concentration of the drug in the combination with L-CCA giving Fa (HIVNL4-3 clone 7-1; Fa 0.4) | concentration of the drug in the combination with L-CCA giving Fa (HIVNL4-3 clone 7-1; Fa 0.6) | concentration of the drug in the combination with L-CCA giving Fa (HIVNL4-3 clone 7-1; Fa 0.8) | concentration of the drug in the combination with L-CCA giving Fa (HIVNL4-3 clone 7-1; Fa 0.9) | concentration of the drug in the combination with L-CCA giving Fa (HIVNL4-3 JF26/A7; Fa 0.2) | concentration of the drug in the combination with L-CCA giving Fa (HIVNL4-3 JF26/A7; Fa 0.4) | concentration of the drug in the combination with L-CCA giving Fa (HIVNL4-3 JF26/A7; Fa 0.6) | concentration of the drug in the combination with L-CCA giving Fa (HIVNL4-3 JF26/A7; Fa 0.8) | concentration of the drug in the combination with L-CCA giving Fa (HIVNL4-3 JF26/A7; Fa 0.9) | concentration of the drug in the combination with L-CCA giving Fa (HIVNL4-3 M184V; Fa 0.2) | concentration of the drug in the combination with L-CCA giving Fa (HIVNL4-3 M184V; Fa 0.4) | concentration of the drug in the combination with L-CCA giving Fa (HIVNL4-3 M184V; Fa 0.6) | concentration of the drug in the combination with L-CCA giving Fa (HIVNL4-3 M184V; Fa 0.8) | concentration of the drug in the combination with L-CCA giving Fa (HIVNL4-3 M184V; Fa 0.9) | LD5 (5% lethal dose, concentration at which cell growth is inhibited by 5%) (MT-2 cells) | other results
Nc1ccn([C@H]2CC[C@@H](CO)O2)c(=O)n1 [DDC, 2′,3′-dideoxycytidine] | 12.4 nM | 21.1 nM | 32.8 nM | 56.0 nM | 87.1 nM | 13.0 nM | 23.8 nM | 39.2 nM | 71.8 nM | 118 nM | 21.6 nM | 43.2 nM | 76.8 nM | 153.7 nM | 273 nM | – | susceptibility of the clone to the drug alone (HIVNL4-3 clone 7-1; HIVNL4-3 clone 7-1): increased susceptibility; susceptibility of the clone to the drug alone (HIVNL4-3 M184V): partial resistance
OC[C@@H]1CC[C@H](n2cnc3c(O)ncnc32)O1 [DDI, 2′,3′-dideoxyinosine] | – | – | – | – | – | – | – | – | – | – | – | – | – | – | – | – | susceptibility of the clone to the drug alone (HIVNL4-3 M184V): partial resistance
O=C(C=Cc1ccc(O)c(O)c1)NCC(NC(=O)C=Cc1ccc(O)c(O)c1)C(=O)O (centres unmarked) [Compound 35, 2-3-dicaffeoyldiamidopropionic acid] | – | – | – | – | – | – | – | – | – | – | – | – | – | – | – | 50 µM | IC50 (HIV-1 IN): 570 nM; EC50 (HIVLAI; Human immunodeficiency virus 1, MT2, 72 h): 70 µM
Cc1c(O)cccc1C(=O)N[C@@H](CSc1ccccc1)[C@H](O)CN1C[C@H]2CCCC[C@H]2C[C@H]1C(=O)NC(C)(C)C [Nelfinavir] | 2.9 nM | 4.9 nM | 7.6 nM | 13.1 nM | 20.3 nM | 4.6 nM | 7.0 nM | 10.0 nM | 15.1 nM | 21.3 nM | 2.5 nM | 4.7 nM | 7.9 nM | 14.8 nM | 24.8 nM | – | –
O=C(O[C@@H](C(=O)O)[C@@H](OC(=O)c1ccc(O)c(O)c1)C(=O)O)c1ccc(O)c(O)c1 [Compound 26] | – | – | – | – | – | – | – | – | – | – | – | – | – | – | – | 90 µM | Fold Change (ED50 resistant clone vs HIVNL4-3) (HIV-1NL4-3clone1-D4): 64; efficacy against the L-chicoric acid resistant clone (HIV-1NL4-3clone1-D4): reduced efficacy; EC50 (HIV-1NL4-3clone1-D4): 52.5 µM; EC50 (HIV-1NL4-3): 0.82 µM; EC50 (HIVLAI; HIVLAI, MT-2 cells, 72 hr): 0.95 µM
O=C(Cc1ccc(O)c(O)c1)O[C@@H](C(=O)O)[C@@H](OC(=O)Cc1ccc(O)c(O)c1)C(=O)O [Compound 28] | – | – | – | – | – | – | – | – | – | – | – | – | – | – | – | 70 µM | Fold Change (ED50 resistant clone vs HIVNL4-3) (HIV-1NL4-3clone1-D4): 4; efficacy against the L-chicoric acid resistant clone (HIV-1NL4-3clone1-D4): reduced efficacy; EC50 (HIV-1NL4-3clone1-D4): 62.5 µM; EC50 (HIV-1NL4-3): 15.6 µM; EC50 (HIVLAI; HIVLAI, MT-2 cells, 72 hr): 35 µM
Cc1cn([C@H]2C[C@H](N=[N+]=[N-])[C@@H](CO)O2)c(=O)[nH]c1=O [Zidovudine, zidovudine] | 2.7 nM | 8.7 nM | 22.9 nM | 73.8 nM | 194 nM | 150.2 nM | 259.8 nM | 409 nM | 707 nM | 1112 nM | 4.9 nM | 10.2 nM | 18.9 nM | 39.6 nM | 73 nM | – | sensitivity of the clones to the drug compared with parental HIVNL4-3 (HIV-1NL4-3clone1-D4; clones 7-1, 7-3 and 1-D4, FIG. 16a): same sensitivity; susceptibility of the clone to the drug alone (HIVNL4-3 JF26/A7; HIVNL4-3 JF26/A7): highly resistant
